{"source": "patent US20260207603A1", "about": "“COMBINATION THERAPY FOR CANCER TREATMENT” (Hoffmann-La Roche Inc., priority 2022, published 2026)", "key": {"[1]": {"tested_on": "HT29 xenograft tumors", "test": "in vivo anti-tumor activity on HT29 xenograft tumors (BRAF V600E colorectal model)", "set-up": "species or system BALB/c Nude mice", "conditions": "monotherapy PO QD, 140 mpk, 60 mpk or 30 mpk; compared with encorafenib 24 mpk; FIG. 6", "text": "(§1) FIG. 1 illustrates a schematic representation of the study design reported in FIG. 2 to and specifies the dosage regime that was used for treating the different cohorts in a colorectal tumour model bearing LS411N xenografts, according to some embodiments. Both models are CRC models and present the BRAF V600E mutation.\nFIG. […] Mice were, for example, treated (QD) until day 43 and the graph expresses mean tumour volume [mm3] for the different cohorts.\n(§2) FIG. 7 reports in vivo anti-tumor activity of a combination of R07276389 at 140 mpk or of encorafenib at 24 mpk, in each instance with 20 mpk of cetuximab on HT29 xenograft tumors in BALB/c Nude mice (10 mice/cohort), according to some embodiments. Monotherapy controls were, for example, also included and the mice were treated (QD) until day 43 and the graph expresses mean tumour volume [mm3] for the different cohorts.\nas §2, with “FIG. 8” for “FIG. 7”, “at 60” for “at 140”, “cohorts. […]” for “cohorts.”"}, "[2]": {"tested_on": "LS411N xenograft tumors", "test": "in vivo anti-tumor activity on LS411N xenograft tumors (BRAF V600E colorectal model)", "set-up": "species or system BALB/c Nude mice", "conditions": "monotherapy PO QD, 20 mpk, 50 mpk or 140 mpk; compared with encorafenib 24 mpk; FIG. 2", "text": "as §1\nFIG. 2 […], or of encorafenib at 24 mpk on LS411N xenograft tumors in BALB/c Nude mice (10 mice/cohort), according to some embodiments. Mice were, for example, treated (QD) until day 43 and the graphs express mean tumour volume [mm3] for the different cohorts.\nas §2, with “FIG. 3” for “FIG. 7”, “on LS411N” for “on HT29”\nFIG. 4 reports in vivo anti-tumor activity of a combination of R07276389 at 60 mpk or of encorafenib at 24 mpk, in each instance with 20 mpk of cetuximab on LS411N xenograft tumors in BALB/c Nude mice (10 mice/cohort), according to some embodiments. […]"}}, "data": [{"smiles": "Cn1cnc2ccc(Oc3c(F)ccc(NS(=O)(=O)N4CC[C@@H](F)C4)c3C#N)cc2c1=O", "note": "[Compound R07276389, (3R)-N-[2-cyano-4-fluoro-3-(3-methyl-4-oxo-quinazolin-6-yl)oxy-phenyl]-3-fluoro-pyrrolidine-1-sulfonamide]", "values": [{"measurement": "tumour growth inhibition", "setting": "[1]", "value": "dose-dependent tumour growth inhibition that was significantly higher when compared with encorafenib"}, {"measurement": "tumour growth inhibition", "setting": "[2]", "value": "dose-dependent tumour growth inhibition that was significantly higher when compared with encorafenib"}]}]}
